Assay results as given in patent publication US10954567B2, “Mutations associated with resistance to inhibitors of Bruton's Tyrosine Kinase (BTK)” (Pharmacyclics LLC, priority 2012, dated 2021).
Where two headings read alike, the source gives them in different places.

Legend:
[1] = test system: CLL cells; assay: In vitro stroma-induced CLL proliferation model (BrdU incorporation); format: cell-based, human; conditions: BTK-mutated (C481S) CLL cells, FIG. 3C, untreated 31%
[2] = test system: CML; conditions: cited from earlier work

## CC[C@H](Nc1ncnc2[nH]cnc12)c1nc2cccc(F)c2c(=O)n1-c1ccccc1 [GS-1101]
[1]
  proliferation: 14%

## Cc1cccc(Nc2nc(N[C@@H]3CCCC[C@@H]3N)ncc2C(N)=O)c1 [PRT060318]
[1]
  proliferation (in words): complete inhibition of proliferation

## CCS(=O)(=O)N1CCN(c2ccc(Nc3ncc(C(N)=O)c(NC4CC4)n3)cc2)CC1 [PRT062070]
[1]
  proliferation (in words): complete inhibition of proliferation

## Cc1ccc(NC(=O)c2ccc(CN3CCN(C)CC3)cc2)cc1Nc1nccc(-c2cccnc2)n1 [imatinib]
[2]; advanced CML
  patients who relapse: 66%
[2]; chronic CML, within the first few years
  patients who relapse: 5%

## C[C@@H]1CCN(C(=O)CC#N)C[C@@H]1N(C)c1ncnc2[nH]ccc12 [tofacitinib]
[1]
  proliferation: 21%
